In PubChem BioAssay AID179 (DTP/NCI, 2004):
Calls of active or inactive are those of the source.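 The calls were made as follows: active = compounds giving half or more protection of infected cells from virus-caused growth loss, again on retest; inactive = the rest.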

System: CEM cells HIV-1 protection, formazan growth assay
Experiment: NCI AIDS Antiviral Assay
Conditions: for IC50: measured here: growth of uninfected CEM cells
Outline: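 Screen of anti-HIV-1 activity in human CEM cells using a formazan-based growth measurement at five drug concentrations. Hits with 50% or greater protection were repeated, and confirmation required reproducible complete protection.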

Structure (SMILES)	EC50 [µM]	IC50 [µM]	outcome
CCCCCCOC(=O)c1[nH]c(=O)[nH]c(=O)c1N	> 200	> 200	
C1=Nc2ccc(cc2)-c2ccc(cc2)N=Cc2ccccc2OCc2cccc(n2)COc2ccccc21	> 200	> 200	
COc1cc2c(cc1OC)C13CCN4CC5=CCOC6CC(=O)N2C1C6C5C4C3 (stereo not given) (tested in a mixture with another compound)	> 209		
O=[N+]([O-])c1ccc(N=Cc2ccc(O)cc2)cc1	> 200	10	
O=C(Nc1ccccc1CCl)Nc1ccccc1CCl (tested in a mixture with another compound)	> 200	41.7	
CCCN(CCCCC(NC(C)=O)C(=O)NCc1ccccc1)C(=O)NC (stereo not given)	> 661	> 661	
Cc1c(-c2cc3n(n2)C(c2cccs2)C(C#N)=C(c2ccccc2)N3)c(=O)n(-c2ccccc2)n1C (stereo not given)			inactive
O=C(O)/C(=C/c1ccccc1[N+](=O)[O-])c1cccs1	> 912	457	
O=C(Nc1cccc(C(F)(F)F)c1)C(=O)C(C(=O)c1ccc2ccccc2c1)C1OC(=O)c2ccccc21 (stereo not given)	> 50.1	21.9	
c1sc(NC2=NCCO2)c2c1CCCC2	> 200	166	
COc1cccc(-c2nc(-c3cnccn3)n(C/C=C/c3ccccc3)n2)c1	178	> 200	
O=S(=O)(O)c1cc(O)c2ccc3c(S(=O)(=O)O)cc(S(=O)(=O)O)c4ccc1c2c34			inactive
CC(C)(C)c1cc(-c2cc(C(C)(C)C)[nH]n2)n[nH]1	> 200	> 200	
CCOC(=O)C1=NN(c2ccccc2)C(=O)/C1=C\N1CCNC1=S	> 135	> 100	
O=C(CC1(O)C(=O)Nc2c(Cl)cc(Cl)cc21)c1ccc(Br)cc1 (stereo not given)	> 26.9	15.8	
Cc1[nH]c2ccccc2c1C(=O)CC1(O)C(=O)Nc2ccccc21 (stereo not given)			inactive
CCN(CC)c1ccc(N=O)c(O)c1	> 200	8.71	
CN(C)CC1CCCC/C1=N/OC(=O)c1ccc(Cl)cc1 (stereo not given)			inactive
CC1CSc2nc3[nH]c(=S)[nH]c3c(=O)n2C1 (stereo not given)	> 200	> 200	
COc1ccc(C)c2c1N[C@](C)([C@]1(C)Nc3c(OC)ccc(C)c3C1=O)C2=O	> 100	> 100	
O=C(c1cc2ccccc2o1)N(Cc1ccccc1)c1ccccc1	> 79.4	> 79.4	
C[N+]1(C)CC=C(N2CCOCC2)CC1	> 200	> 200	

Structure (SMILES)	EC50 [µM]	IC50 [µM]	outcome
[N-]=[N+]=CC(=O)c1ccccc1C#CCCc1ccccc1	46.8	67.6	
CC12CC(OC(=O)[C@]1(C)O)[C@@H]([C@]1(O)CC[C@H]3[C@@H]4C[C@H]5O[C@]56[C@@H](O)C=CC(=O)[C@]6(C)[C@H]4CC[C@@]31C)C2 (stereo not given in full)	> 3.89	0.145	
CC1(C)N([O-])[N+](=O)C1(Br)c1ccccc1 (stereo not given)	> 200	145	
CCCc1cc(=O)oc2c3c(c4c(c12)OC(C)(C)[C@@H](O)[C@@H]4O)O[C@@H](C)[C@H](C)[C@@H]3O	> 200	89.1	
Cn1c(=O)c2c(nc3n2CCC(=O)N3CCCCl)n(C)c1=O	> 200	166	
CCCc1nc(NC#N)nc(C(=O)NC23CC4CC(CC(C4)C2)C3)c1C	> 355	> 355	
O=[N+]([O-])c1ccc2nc(/C=C(\O)c3ccccc3)c(NC34CC5CC(CC(C5)C3)C4)nc2c1	> 200	182	
Cc1c(/C=C/C(=O)O)no[n+]1[O-]	> 200	> 200	
O=c1c2ccccc2nc(-c2ccccc2)n1NC(=S)Nc1ccccc1	> 135	112	
N#CCCN(CCCN(C(=O)Nc1ccccc1)c1ccccc1)C(=O)Nc1ccccc1	> 200	95.5	
O=C(O)CSC(=O)Nc1ccc(N=Nc2ccccc2)cc1			inactive
Sc1nc2ccccc2s1.Sc1nc2ccccc2s1.Sc1nc2ccccc2s1.Sc1nc2ccccc2s1.[Cl][Rh][Cl]	> 151	2.95	
O=C(O)c1cc(Nc2nc(Cl)nc(Cl)n2)ccc1-c1c2ccc(=O)cc-2oc2cc(O)ccc12	38	692	
CC(NC(C#N)CC12CC3CC(CC(C3)C1)C2)c1ccccc1 (stereo not given)	> 200	41.7	
Cn1c(NN)nc2ccccc2c1=O			inactive
CN(C)C(=S)SC(=S)N(C)C	> 200	11	
C1CCCC(N2N=NC3C4CC(C5N=NN(C6CCCCCC6)C45)C32)CC1 (stereo not given)	> 200	> 200	
CCOC(=O)Cc1nc2c(=O)[nH]cnc2n1C1OC(COC(C)=O)C(OC(C)=O)C1OC(C)=O (stereo not given)	> 200	> 200	
CSC(=NC(=O)c1ccccc1Cl)SCCSC(=NC(=O)c1ccccc1Cl)SC	> 347	> 347	
CC1=NN(C(=O)CC(=O)Nc2cccc(C)c2)C(=O)C1N=Nc1ccc(S(=O)(=O)c2ccc(N=NC3C(=O)N(C(=O)CC(=O)Nc4cccc(C)c4)N=C3C)cc2)cc1 (stereo not given)	> 50.1	> 50.1	
CCOC(=O)C1(C#N)CC1			inactive
CCOC(=O)/C(C#N)=C/c1ccco1	> 263	> 263	
